As a reminder, the IC50 is the concentration that gives 50% inhibition.

In patent US20260365670A1, “EGFR INHIBITORS AND USES THEREOF” (DIZAL (JIANGSU) PHARMACEUTICAL CO., LTD., priority 2022, published 2026) one finds IC50 and GI50 data, which are given here for 2 compounds.

Experiment [1] deals with T1, EGFR[T790M/C797S/d746-750] (Homo sapiens, UniProt P00533, C797S/DEL746-750/T790M).
T1 construct: purchased Carna Bio
Description: Inhibition of EGFR[T790M/C797S/d746-750] biochemical enzymatic activity (HTRF). As to conditions: 1 mM ATP, 1 h at room temperature. On the procedure:
(§1) Biological Example 1: Inhibition of EGFR WT and Mutant Biochemical Enzymatic Activity
(§2) The inhibition potency of compounds against these enzymes was assessed using Homogenous Time Resolved Fluorescence approach (HTRF, CisBio. Cat No. 62TKOPEJ).
(§3) Inhibitory effects of the compounds were determined by measuring the enzymatic activity of EGFR enzyme phosphorylates 1 μM TK Substrate-biotin in the presence of 1 mM adenosine-5′-triphosphate (ATP) and varying concentrations of the test compound. The enzyme reaction buffer contains 5 mM MgCl2, 1 mM MnC12, 0.01% CHAPS, 1 mM dithiothreitol (DTT), 0.5% dimethylsulfoxide (DMSO), and 1× supplemented enzymatic buffer. The WT and mutant EGFR enzymes (SignalChem) were added to plates containing inhibitors, followed by activation of the kinase reaction by addition of ATP and peptide substrates. After incubation for 1 h at room temperature, the reaction was stopped by the addition of the detection reagent mix containing EDTA. The fluorescence was measured at 615 nm and 665 nm, respectively with excitation wavelength at 320 nm. The calculated signal ratio of 665 nm/615 nm is proportional to the kinase activity. The concentration of compound producing 50% inhibition of the respective kinase (IC50) was calculated using four-parameter logistic fit with XL-FIT.
(In general: In TR-FRET formats the signal depends on donor and acceptor labels being close together.)

The next experiment concerns the target T2, EGFR L858R/T790M (Homo sapiens, UniProt P00533, L858R/T790M).
T2 construct: purchased Carna Bio
Nature of the experiment: Inhibition of EGFR L858R/T790M biochemical enzymatic activity (HTRF). The note with it: EGFR L858R/T790M, 1 mM ATP, 1 h at room temperature. Here is the method: as §1, §2, §3

In experiment [2] the test system is Ba/F3 cells expressing EGFR mutations. Description: Cell proliferation assay, Ba/F3 cells expressing EGFR mutations (CellTiter-Glo, 72 hours). It is filed as cell-based. Here is the method: (§4) Biological Example 2: Cell Proliferation Assays
(§5) Ba/F3 cells expressing EGFR mutations were seeded in 384-well plates at 5000 cells/well in RPMI1640 medium containing […]. PC-9 at 500 cells/well was seeded into 384-well plates in RPMI1640 medium with 10% FBS. After overnight incubation, the assay plates were dosed with compounds at a series of concentrations. Alongside dosing the assay plates, the day 0 plate was processed using CellTiter-Glo® Luminescent Cell Viability Assay (Promega) to measure the number of viable cells (G0). The assay plates were further incubated for 72 hours and the number of viable cells (G3) was measured. The percentage of proliferation was calculated as: […]=100×(G3 value of sample well−G0 value)/(G3 value of DMSO control−G0 value). The concentration of compound producing 50% proliferation inhibition (GI50) was further calculated in best-fit curves using XLFit software. N/A=not available.

In the next experiment the target is T3, EGFR (d746-750 C797S) (Homo sapiens, UniProt P00533, C797S/DEL746-750).
T3 construct: purchased signalchem
T3 sequence (P00533 with tags, fused parts or gaps DEL746-750/C797S limits assumed): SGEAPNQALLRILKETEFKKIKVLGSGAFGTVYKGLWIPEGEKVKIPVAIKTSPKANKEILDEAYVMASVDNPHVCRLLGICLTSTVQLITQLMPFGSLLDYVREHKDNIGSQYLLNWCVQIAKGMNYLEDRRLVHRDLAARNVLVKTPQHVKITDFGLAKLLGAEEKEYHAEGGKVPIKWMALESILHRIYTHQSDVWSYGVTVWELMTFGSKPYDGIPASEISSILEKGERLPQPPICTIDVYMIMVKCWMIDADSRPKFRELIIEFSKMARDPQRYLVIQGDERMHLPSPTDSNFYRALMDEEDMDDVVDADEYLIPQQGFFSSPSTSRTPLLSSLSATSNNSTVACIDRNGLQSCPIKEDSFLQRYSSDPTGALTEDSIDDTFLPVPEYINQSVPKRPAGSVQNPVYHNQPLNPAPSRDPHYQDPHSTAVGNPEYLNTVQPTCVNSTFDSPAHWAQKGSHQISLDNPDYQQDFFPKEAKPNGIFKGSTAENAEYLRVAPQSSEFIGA
Nature of the experiment: Inhibition of EGFR (d746-750 C797S) biochemical enzymatic activity (HTRF). The note with it: EGFR (d746-750 C797S), 1 mM ATP, 1 h at room temperature. Here is the method:
as §1, §2, §3

Another experiment has as its target T4, EGFR (C797S L858R) (Homo sapiens, UniProt P00533, C797S/L858R).
T4 construct: purchased signalchem
Nature of the experiment: Inhibition of EGFR (C797S L858R) biochemical enzymatic activity (HTRF). The note with it: EGFR (C797S L858R), 1 mM ATP, 1 h at room temperature. Here is the method:
as §1, §2, §3

The target in another experiment is T5, EGFR[T790M/C797S/L858R] (Homo sapiens, UniProt P00533, C797S/L858R/T790M).
T5 construct: purchased Carna Bio
T5 sequence (P00533 25-1210 T790M/C797S/L858R): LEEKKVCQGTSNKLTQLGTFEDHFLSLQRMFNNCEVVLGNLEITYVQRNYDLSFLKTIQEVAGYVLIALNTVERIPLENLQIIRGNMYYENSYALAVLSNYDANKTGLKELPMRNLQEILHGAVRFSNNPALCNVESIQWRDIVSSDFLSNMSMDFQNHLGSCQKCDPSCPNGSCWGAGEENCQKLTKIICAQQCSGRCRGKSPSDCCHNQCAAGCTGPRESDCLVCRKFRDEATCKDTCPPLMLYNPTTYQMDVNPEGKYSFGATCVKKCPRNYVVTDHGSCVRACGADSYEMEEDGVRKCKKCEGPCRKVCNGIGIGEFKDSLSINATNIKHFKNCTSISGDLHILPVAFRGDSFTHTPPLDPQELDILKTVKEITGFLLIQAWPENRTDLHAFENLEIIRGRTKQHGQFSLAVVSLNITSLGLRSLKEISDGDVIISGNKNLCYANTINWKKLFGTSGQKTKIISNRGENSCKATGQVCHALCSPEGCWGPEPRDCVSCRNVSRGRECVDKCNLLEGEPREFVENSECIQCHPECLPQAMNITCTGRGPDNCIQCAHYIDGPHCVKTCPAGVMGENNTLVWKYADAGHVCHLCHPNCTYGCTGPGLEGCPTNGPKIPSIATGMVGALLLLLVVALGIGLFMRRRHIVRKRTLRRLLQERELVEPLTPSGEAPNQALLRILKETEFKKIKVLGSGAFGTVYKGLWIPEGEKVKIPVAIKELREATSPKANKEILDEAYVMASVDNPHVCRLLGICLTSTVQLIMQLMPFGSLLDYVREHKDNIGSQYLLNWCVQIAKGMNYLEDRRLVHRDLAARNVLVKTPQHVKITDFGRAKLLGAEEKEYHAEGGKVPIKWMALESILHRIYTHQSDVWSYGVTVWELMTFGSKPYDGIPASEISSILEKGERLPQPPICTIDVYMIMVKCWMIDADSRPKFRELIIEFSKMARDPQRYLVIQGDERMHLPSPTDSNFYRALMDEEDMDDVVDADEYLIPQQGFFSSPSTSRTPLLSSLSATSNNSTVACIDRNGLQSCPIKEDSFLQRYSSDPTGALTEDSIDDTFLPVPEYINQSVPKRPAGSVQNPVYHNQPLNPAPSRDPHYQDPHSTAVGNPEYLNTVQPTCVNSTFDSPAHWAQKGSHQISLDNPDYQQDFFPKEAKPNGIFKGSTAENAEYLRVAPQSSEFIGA
Nature of the experiment: Inhibition of EGFR[T790M/C797S/L858R] biochemical enzymatic activity (HTRF). The note with it: EGFR[T790M/C797S/L858R], 1 mM ATP, 1 h at room temperature. Here is the method:
as §1, §2, §3

The target of the next experiment is T6, EGFR wild type (Homo sapiens, UniProt P00533).
T6 construct: purchased Carna Bio
Description: Inhibition of EGFR wild type biochemical enzymatic activity (HTRF). The note with it: EGFR wild type, 1 mM ATP, 1 h at room temperature. Here is the method:
as §1, §2, §3

The target of a further experiment is T7, EGFR Exon19Del (Homo sapiens, UniProt P00533, DEL746-750).
T7 construct: purchased Carna Bio
T7 sequence (P00533 with tags, fused parts or gaps DEL746-750 limits assumed): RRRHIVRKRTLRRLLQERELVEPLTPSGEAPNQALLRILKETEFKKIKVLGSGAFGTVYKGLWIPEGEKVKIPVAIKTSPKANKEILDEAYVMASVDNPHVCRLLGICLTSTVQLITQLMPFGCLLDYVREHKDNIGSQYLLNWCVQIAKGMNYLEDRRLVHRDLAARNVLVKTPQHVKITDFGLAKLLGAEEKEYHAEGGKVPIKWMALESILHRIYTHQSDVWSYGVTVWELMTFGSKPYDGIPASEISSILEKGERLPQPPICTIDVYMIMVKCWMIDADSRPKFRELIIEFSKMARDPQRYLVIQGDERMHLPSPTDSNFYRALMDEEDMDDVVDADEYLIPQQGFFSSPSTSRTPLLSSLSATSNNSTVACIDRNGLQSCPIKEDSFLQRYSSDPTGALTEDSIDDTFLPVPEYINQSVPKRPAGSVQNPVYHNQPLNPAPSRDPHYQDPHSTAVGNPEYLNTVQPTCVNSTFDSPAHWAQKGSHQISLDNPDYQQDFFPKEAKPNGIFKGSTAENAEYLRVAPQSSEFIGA
Description: Inhibition of EGFR Exon19Del biochemical enzymatic activity (HTRF). The note with it: 1 mM ATP, 1 h at room temperature. On the procedure:
as §1, §2, §3

Another experiment addresses T8, EGFR Exon19Del/T790M (Homo sapiens, UniProt P00533, DEL746-750/T790M).
T8 construct: purchased Carna Bio
Nature of the experiment: Inhibition of EGFR Exon19Del/T790M biochemical enzymatic activity (HTRF). As to conditions: EGFR Exon19Del/T790M, 1 mM ATP, 1 h at room temperature. On the procedure: as §1, §2, §3

The target of another experiment is T9, EGFR L858R (Homo sapiens, UniProt P00533, L858R).
T9 construct: purchased Carna Bio
Nature of the experiment: Inhibition of EGFR L858R biochemical enzymatic activity (HTRF). As to conditions: 1 mM ATP, 1 h at room temperature. Here is the method: as §1, §2, §3

The next experiment has as its system PC-9. Description: Cell proliferation assay, PC-9 cells (CellTiter-Glo, 72 hours). As to conditions: PC9 cells, read-out: GI50 PC9. The class given is cell-based. On the procedure:
as §4, §5

Setting [3] is: BaF3 cells, EGFR DEL19 - C797S, read-out: GI50 DEL19 - C797S/BaF3.
Where [4] appears, read: BaF3 cells, EGFR DEL19 - T790-C797S, read-out: GI50 DEL19 - T790-C797S/BaF3.
Setting [5] is: BaF3 cells, EGFR L858R - C797S, read-out: GI50 L858R - C797S/BaF3.
[6] abbreviates: BaF3 cells, EGFR L858R - T790-C797S, read-out: GI50 L858R - T790-C797S/BaF3.
Where [7] appears, read: BaF3 cells, EGFR L858R - T790M, read-out: GI50 L858R - T790M/BaF3.
The mark [8] stands for this setting: BaF3 cells, EGFR L858R, read-out: GI50 L858R/BaF3.
Where [9] appears, read: EGFR DEL19 - T790M, read-out: GI50 DEL19 - T790M.

Where two headings read alike, the source gives them in different places.

T2 sequence (P00533 25-1210 T790M/L858R): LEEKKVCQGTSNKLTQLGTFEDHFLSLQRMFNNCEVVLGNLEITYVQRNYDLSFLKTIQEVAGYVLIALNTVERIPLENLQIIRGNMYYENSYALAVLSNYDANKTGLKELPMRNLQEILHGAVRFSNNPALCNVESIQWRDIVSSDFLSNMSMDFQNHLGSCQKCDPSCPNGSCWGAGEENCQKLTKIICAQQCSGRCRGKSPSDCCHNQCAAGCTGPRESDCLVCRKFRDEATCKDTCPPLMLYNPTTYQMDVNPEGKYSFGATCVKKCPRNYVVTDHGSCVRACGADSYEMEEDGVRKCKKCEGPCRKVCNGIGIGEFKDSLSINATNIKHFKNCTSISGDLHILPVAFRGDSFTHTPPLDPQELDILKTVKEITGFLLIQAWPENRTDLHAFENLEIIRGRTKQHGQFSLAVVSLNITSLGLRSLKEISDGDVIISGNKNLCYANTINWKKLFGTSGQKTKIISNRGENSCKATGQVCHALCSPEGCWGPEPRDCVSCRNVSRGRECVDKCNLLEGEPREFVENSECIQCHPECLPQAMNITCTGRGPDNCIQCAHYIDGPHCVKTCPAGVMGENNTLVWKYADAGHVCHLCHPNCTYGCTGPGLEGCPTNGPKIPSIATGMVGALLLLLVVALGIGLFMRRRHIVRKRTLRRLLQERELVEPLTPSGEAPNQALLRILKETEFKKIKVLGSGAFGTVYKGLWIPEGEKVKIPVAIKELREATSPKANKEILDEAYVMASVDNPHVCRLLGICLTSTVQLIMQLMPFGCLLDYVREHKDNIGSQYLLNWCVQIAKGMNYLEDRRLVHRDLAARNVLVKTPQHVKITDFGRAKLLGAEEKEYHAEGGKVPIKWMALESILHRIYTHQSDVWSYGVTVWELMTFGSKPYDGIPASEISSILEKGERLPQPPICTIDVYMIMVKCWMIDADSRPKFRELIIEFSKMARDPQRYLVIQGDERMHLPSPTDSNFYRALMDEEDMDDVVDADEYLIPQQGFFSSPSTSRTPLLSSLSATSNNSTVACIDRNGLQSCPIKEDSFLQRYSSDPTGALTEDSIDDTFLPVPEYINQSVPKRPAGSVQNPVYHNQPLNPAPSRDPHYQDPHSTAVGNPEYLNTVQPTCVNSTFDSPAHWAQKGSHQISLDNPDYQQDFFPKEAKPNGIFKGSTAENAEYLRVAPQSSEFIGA
T8 sequence (P00533 with tags, fused parts or gaps DEL746-750/T790M limits assumed): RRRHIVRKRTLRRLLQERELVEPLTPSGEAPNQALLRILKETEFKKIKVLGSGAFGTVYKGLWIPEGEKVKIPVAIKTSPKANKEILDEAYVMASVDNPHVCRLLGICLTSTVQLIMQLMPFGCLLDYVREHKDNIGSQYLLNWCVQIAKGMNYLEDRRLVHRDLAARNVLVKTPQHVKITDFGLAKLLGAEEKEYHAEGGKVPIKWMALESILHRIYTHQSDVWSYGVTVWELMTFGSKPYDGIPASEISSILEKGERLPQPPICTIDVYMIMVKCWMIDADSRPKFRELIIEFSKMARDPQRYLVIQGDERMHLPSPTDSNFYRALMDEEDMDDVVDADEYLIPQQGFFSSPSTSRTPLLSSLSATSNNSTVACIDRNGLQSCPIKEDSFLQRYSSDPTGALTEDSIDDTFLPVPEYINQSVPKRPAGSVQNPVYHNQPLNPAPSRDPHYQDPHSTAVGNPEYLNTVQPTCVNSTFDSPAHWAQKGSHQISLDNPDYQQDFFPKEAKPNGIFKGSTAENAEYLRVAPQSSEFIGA
T1 sequence (P00533 with tags, fused parts or gaps DEL746-750/T790M/C797S limits assumed): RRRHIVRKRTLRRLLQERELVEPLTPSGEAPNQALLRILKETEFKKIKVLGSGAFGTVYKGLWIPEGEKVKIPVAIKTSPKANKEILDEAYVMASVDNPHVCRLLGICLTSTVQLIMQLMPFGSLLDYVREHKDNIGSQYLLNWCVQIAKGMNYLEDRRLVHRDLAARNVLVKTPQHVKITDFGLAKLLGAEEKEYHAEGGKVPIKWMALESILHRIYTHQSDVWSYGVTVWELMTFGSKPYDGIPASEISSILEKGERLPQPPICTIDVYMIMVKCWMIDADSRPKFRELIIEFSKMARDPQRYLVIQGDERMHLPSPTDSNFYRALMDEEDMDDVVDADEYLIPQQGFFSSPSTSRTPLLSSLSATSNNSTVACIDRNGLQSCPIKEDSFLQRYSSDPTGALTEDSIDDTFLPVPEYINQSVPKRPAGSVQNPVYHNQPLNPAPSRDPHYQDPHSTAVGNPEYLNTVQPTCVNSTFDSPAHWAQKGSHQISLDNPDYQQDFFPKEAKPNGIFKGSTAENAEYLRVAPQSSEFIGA

As to `Cc1cc2cc(n1)-c1cnn(C)c1OCCN1CC3CCC(C3)(C1)n1c(nc3ccc(N4CCC(N(C)C)CC4)cc31)NC2=O` (single isomer, unassigned) [Example B40A, 5-[4-(dimethylamino)piperidin-1-yl]-15,21-dimethyl-23-oxa-2,9,11,16,20,21,26-heptaazaheptacyclo[24.4.1.1^{1,28}.1^{13,17}.0^{2,10}.0^{3,8}.0^{18,22}]tritriaconta-3,5,7,9,13,15,17(33),18(22),19-nonaen-12-one], the IC50 in [1] (IC50 @T790M - C797S - Del19, EGFR[T790M/C797S/d746-750]) was 123 nM; against EGFR L858R/T790M (IC50 @L858R-T790M) it was over 5000 nM; at EGFR (d746-750 C797S) (IC50 @Del19-C797S) it was 2480 nM; at EGFR (C797S L858R) (IC50 @L858-C797S) it was over 5000 nM; at EGFR[T790M/C797S/L858R] (IC50 @T790M- C797S - L858R), over 5000 nM; at EGFR wild type (IC50 @WT), over 5000 nM. In addition, the half-inhibitory concentration (IC50) is over 5000 nM on EGFR Exon19Del (IC50 @Del19, EGFR Exon19Del); 430 nM at EGFR Exon19Del/T790M (IC50 @Del19-T790M); over 5000 nM at EGFR L858R (IC50 @L858R). For the same compound, the GI50 in experiment [2] (setting [3]) came out at 212 nM; in [2] (setting [4]), 164 nM; in experiment [2] (setting [5]) it was 312 nM; in experiment [2] (setting [6]) it was 41 nM; in [2] (setting [7]), 194 nM; in experiment [2] (setting [8]) it was 877 nM. In addition, the GI50 turned out to be 258 nM in experiment [2] (setting [9]) and 950 nM in the experiment on PC-9.

As to `Cc1cc2cc(n1)-c1cnn(C)c1OCCN1CC3CCC(C3)(C1)n1c(nc3ccc(N4CC5CC4CN5C)cc31)NC2=O` (single isomer, unassigned) [Example B53A], the IC50 in [1] (EGFR[T790M/C797S/d746-750], read-out: IC50 @T790M - C797S - Del19) was 1080 nM; on EGFR L858R/T790M (read-out: IC50 @L858R-T790M) it was over 5000 nM; at EGFR (d746-750 C797S) (read-out: IC50 @Del19-C797S) it was 4350 nM; at EGFR (C797S L858R) (read-out: IC50 @L858-C797S) it was over 5000 nM; at EGFR[T790M/C797S/L858R] (read-out: IC50 @T790M- C797S - L858R), over 5000 nM; at EGFR wild type (read-out: IC50 @WT) it was over 5000 nM. The IC50 was over 5000 nM at EGFR Exon19Del (EGFR Exon19Del, read-out: IC50 @Del19); 3320 nM on EGFR Exon19Del/T790M (read-out: IC50 @Del19-T790M); over 5000 nM on EGFR L858R (read-out: IC50 @L858R). For the same compound, the GI50 in [2] (setting [3]) was 348 nM; in [2] (setting [4]), 419 nM; in [2] (setting [5]) it was 1070 nM; in [2] (setting [6]) it was 91 nM; in experiment [2] (setting [7]) it was 383 nM; in experiment [2] (setting [8]), 2570 nM. Besides, the GI50 came out at 388 nM in [2] (setting [9]) and 3040 nM in the experiment on PC-9.
